In US5132293A, “Enzymic alteration of hair growth” (priority 1991, dated 1992):
Where two headings read alike, the source gives them in different places.

What was measured:
flank organ hair = test: Hamster flank organ hair growth inhibition by topical inhibitor (hair mass, treated organ vs vehicle-treated organ); type: in vivo, male intact Golden Syrian hamsters; conditions: for Flank Organ Hair Mass, Treated: ± SE; for Hair Growth Inhibition: percent decrease vs vehicle-treated organ
Description: A series of compositions was prepared each containing a given concentration of specified inhibitor in the foregoing vehicle, as listed in Table 1 below.
Four groups (eight animals in each group) of male intact Golden Syrian hamsters were provided. These animals were considered acceptable models for human beard hair growth in that they display oval shaped flank organs, one on each side, each about 8 mm in major diameter, which grow thick black and coarse hair similar to human beard hair. These organs produce hair in response to androgens in the hamster. The flank organs of each hamster were depilated by applying a thioglycolate-based chemical depilatory (Surgex), and to one organ of each animal was applied 10 μL. of vehicle alone once a day, while to the other organ of each animal was applied an equal amount of vehicle containing inhibitor. After 14 such applications (Mon.-Fri.) over a period of 18 days, the flank organs were shaved and the amount of recovered hair (hair mass) from each was weighed. The extent of reduction in hair growth by the inhibitor was expressed as the percent decrease in hair mass on the organ treated with inhibitor as compared to the organ treated with vehicle alone. As a control, one group of eight animals had both flank organs of each animal treated with vehicle alone.
The same procedure was followed as in Example 1 except that the vehicle used for the compositions consisted of water alone.
The same test procedure was followed except that the compositions were applied to the hamster flank organs every day for fifteen successive days, at which time hair mass was measured; the results were as follows: […]

hamster flank organ = conditions: topical application; cited from earlier work
[1] = system: brain 4-aminobutyric acid levels; conditions: transformation catalyzed by mitochondrial monoamine oxidase; cited from earlier work
sebaceous glands = conditions: cited from earlier work
sebum excretion = conditions: topical, cited from earlier work
hair growth = conditions: intact males; Table 3, Group VI vs. Group X; cited from earlier work
[2] = Table 1, 5% of each inhibitor in water/ethanol/glycol vehicle, 10 μL once a day, 14 applications over 18 days
[3] = Table 1, 5% of each inhibitor in water/ethanol/glycol vehicle, 14 applications over 18 days
[4] = Table 3, 5% of each inhibitor, Example 1 vehicle, every day for fifteen successive days

SMILES: CCC(=NNC(=N)N)C(CC)=NNC(=N)N [DEGBG, diethylglyoxal bis(guanylhydrazone)]
- Flank Organ Hair Mass, Treated (flank organ hair; Table 2, 2.5% inhibitor, vehicle water alone, 14 applications over 18 days): 2.62 ± .15 mg
- Hair Growth Inhibition (flank organ hair; Table 2, 2.5% inhibitor, vehicle water alone): 15.9 ± 5.2%

SMILES: CCC[C@]1(O)CC[C@H]2[C@@H]3CCC4=CC(=O)CC[C@]4(C)[C@H]3CC[C@@]21C [17β-hydroxy-17α-propylandrost-4-en-3-one]
- reduction in hair growth of the hamster flank organ (hamster flank organ): substantial reduction in hair growth
- size of the flank organ (hamster flank organ): reduction in the size of the flank organ

SMILES: CC(C=NNC(=N)N)=NNC(=N)N [MGBG, methylglyoxal bis(guanylhydrazone)]
- Flank Organ Hair Mass, Treated (flank organ hair; [2]): 1.54 ± .22 mg
- Hair Growth Inhibition (flank organ hair; [3]): 40.3 ± 7.4%
- Hair Growth Inhibition (flank organ hair; [4]): 42.3 ± 8.2%
- Flank Organ Hair Mass, Treated (flank organ hair; [4]): 0.56 ± .11 mg

SMILES: C#CC(N)CCCN (stereo not shown) [5-hexyne-1,4-diamine]
- brain 4-aminobutyric acid levels [1]: increases in brain 4-aminobutyric acid levels

SMILES: CC(=O)[C@H]1CC[C@H]2[C@@H]3CCC4=CC(=O)CC[C@]4(C)[C@H]3CC[C@]12C [progesterone]
- effectiveness of progesterone (sebaceous glands; female): effective in the female
- effectiveness of progesterone (sebaceous glands; male): not in the male
- reducing sebum excretion rates (sebum excretion; females): effective in reducing sebum excretion rates in females
- reducing sebum excretion rates (sebum excretion; males): without effect in males
- effect on inhibition of hair growth (hair growth): doubtful

SMILES: NCCC[C@](N)(C(=O)O)C(F)F [DFMO, 2-(difluoromethyl)-ornithine]
- Flank Organ Hair Mass, Treated (flank organ hair; [2]): 0.99 ± .08 mg
- Hair Growth Inhibition (flank organ hair; [3]): 64.3 ± 3.7%
- Flank Organ Hair Mass, Treated (flank organ hair; Table 2, 5% inhibitor, vehicle water alone, 14 applications over 18 days): 2.70 ± .22 mg
- Hair Growth Inhibition (flank organ hair; Table 2, 5% inhibitor, vehicle water alone): 18.8 ± 3.7%
- Hair Growth Inhibition (flank organ hair; [4]): 44.4 ± 18.2%
- Flank Organ Hair Mass, Treated (flank organ hair; [4]): 0.49 ± .14 mg

SMILES: CN(CCON)C[C@H]1O[C@@H](n2cnc3c(N)ncnc32)[C@H](O)[C@@H]1O [MAOEA, 5'-deoxy-5'-[N-methyl-N-(2-[aminooxy]ethyl)] aminoadenosine]
- Flank Organ Hair Mass, Treated (flank organ hair; [2]): 2.03 ± .18 mg
- Hair Growth Inhibition (flank organ hair; [3]): 29.4 ± 5.9%
